Data on 32 molecules can be found in patent US6518268B1, “Telomerase inhibitors and methods of their use” (Geron Corporation, priority 1999, dated 2003).

The target of assay [1] is T1, partially purified telomerase from a nuclear extract of HEK293 cells (Homo sapiens, UniProt O14746).
T1 construct: partially purified telomerase from a nuclear extract of HEK293 cells; endogenous in cells; host or cells: HEK293 cells, nuclear extract, partially purified
In words: In vitro telomerase inhibition, membrane hybridization method (U.S. Pat. No. 5,760,062). Format: biochemical. The settings on record: for IC50: partially purified telomerase from nuclear extract of HEK293 cells; for residual activity of in vitro telomerase activity (in parenthesis): in the presence of the compound at a concentration of 10 μm. On the procedure:
Alternatively, telomerase inhibitory activity of the compounds was measured in accordance with a known method (U.S. Pat. No. 5,760,062). That is, a dimethyl sulfoxide (DMSO) solution of each agent was mixed with partially purified telomerase from a nuclear extract of HEK293 cells and incubated in the presence of an oligodeoxynucleotide to be used as the substrate and deoxynucleotide triphosphate. The obtained reacted product (DNA having a telomere sequence) was adsorbed on a membrane, and hybridization was carried out using a labeled oligonucleotide probe having a sequence complementary to the telomere sequence. The inhibition ratio was calculated based on the ratio of the signal of label on the membrane in the presence of the agent to the signal of label in the absence of the agent (control). Also, concentration of each agent which inhibits 50% of the enzyme activity based on the control was used as IC50.

Assay [2] deals with T2, telomerase in human renal carcinoma cell line ACHN (Homo sapiens, UniProt O14746).
T2 construct: human renal carcinoma cell line ACHN for 3 days, and then a cell extract was prepared; endogenous in cells; host or cells: ACHN human renal carcinoma cells; CHAPS extract after 3 days of treatment
Description: Telomerase activity in extract of agent-treated ACHN cells (TRAP assay). The assay is classed as cell-based. The note with it: contact 3 days. The procedure: That is, a cell extract was prepared using a buffer solution containing 0.5% CHAPS. Using the extract, TRAP (Telomeric Repeat Amplification Protocol) assay was carried out in vitro (TRAPEZE™ ELISA Telomerase Detection Kit, manufactured by Intergen). The ratio (%) of the enzyme activity in the extract from agent-treated cells to the enzyme activity in the extract from agent-untreated cells was calculated.

[3] abbreviates: concentration 30 μM, read-out: Residual Enzyme Activity (%).
Setting [4] is: concentration 10 μM, read-out: Residual Enzyme Activity (%).

T1 sequence (O14746 whole entry): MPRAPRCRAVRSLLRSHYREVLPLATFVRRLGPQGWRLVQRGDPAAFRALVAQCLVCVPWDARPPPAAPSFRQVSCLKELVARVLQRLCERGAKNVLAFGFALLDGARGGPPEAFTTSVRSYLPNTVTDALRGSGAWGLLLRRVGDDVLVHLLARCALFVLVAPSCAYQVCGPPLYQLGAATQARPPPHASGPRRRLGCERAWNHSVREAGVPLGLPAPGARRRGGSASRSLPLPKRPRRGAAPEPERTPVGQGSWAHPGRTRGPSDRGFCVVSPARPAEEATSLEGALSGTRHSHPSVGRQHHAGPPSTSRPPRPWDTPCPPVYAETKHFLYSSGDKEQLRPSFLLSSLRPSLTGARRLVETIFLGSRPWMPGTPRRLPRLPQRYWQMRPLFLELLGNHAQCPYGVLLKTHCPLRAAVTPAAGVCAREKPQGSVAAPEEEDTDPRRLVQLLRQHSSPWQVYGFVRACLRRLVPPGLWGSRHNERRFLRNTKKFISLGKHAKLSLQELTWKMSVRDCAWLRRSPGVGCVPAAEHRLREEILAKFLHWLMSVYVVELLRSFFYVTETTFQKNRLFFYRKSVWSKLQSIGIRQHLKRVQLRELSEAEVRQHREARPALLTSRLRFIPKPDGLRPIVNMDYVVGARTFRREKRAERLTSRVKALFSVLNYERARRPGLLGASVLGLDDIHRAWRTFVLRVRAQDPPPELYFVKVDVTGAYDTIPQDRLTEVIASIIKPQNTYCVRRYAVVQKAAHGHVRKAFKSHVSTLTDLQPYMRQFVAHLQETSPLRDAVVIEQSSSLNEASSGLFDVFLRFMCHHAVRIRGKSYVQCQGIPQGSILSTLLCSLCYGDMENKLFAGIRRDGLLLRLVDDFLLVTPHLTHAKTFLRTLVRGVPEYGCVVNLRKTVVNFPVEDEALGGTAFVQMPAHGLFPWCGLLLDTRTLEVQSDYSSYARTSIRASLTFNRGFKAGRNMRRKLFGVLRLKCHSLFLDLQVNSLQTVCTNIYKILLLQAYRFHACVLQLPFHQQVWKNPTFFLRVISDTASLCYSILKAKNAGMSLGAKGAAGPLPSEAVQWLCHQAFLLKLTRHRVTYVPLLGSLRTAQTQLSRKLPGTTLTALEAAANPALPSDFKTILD
T1 sequence (O60832 whole entry partner): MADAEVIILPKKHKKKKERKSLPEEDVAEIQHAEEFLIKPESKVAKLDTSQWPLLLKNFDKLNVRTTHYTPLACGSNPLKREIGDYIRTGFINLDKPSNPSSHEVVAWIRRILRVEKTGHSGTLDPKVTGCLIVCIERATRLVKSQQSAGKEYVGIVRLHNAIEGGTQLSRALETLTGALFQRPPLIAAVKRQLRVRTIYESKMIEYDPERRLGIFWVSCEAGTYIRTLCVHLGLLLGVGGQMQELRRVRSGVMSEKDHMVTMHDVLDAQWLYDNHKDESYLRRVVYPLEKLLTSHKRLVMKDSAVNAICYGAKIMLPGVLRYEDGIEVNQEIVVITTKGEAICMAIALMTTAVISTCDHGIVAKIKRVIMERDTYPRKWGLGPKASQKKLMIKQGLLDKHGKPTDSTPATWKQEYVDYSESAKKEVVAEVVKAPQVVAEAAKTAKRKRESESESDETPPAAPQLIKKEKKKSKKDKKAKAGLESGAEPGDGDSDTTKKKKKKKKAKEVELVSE
T1 sequence (Q9NPE3 whole entry partner): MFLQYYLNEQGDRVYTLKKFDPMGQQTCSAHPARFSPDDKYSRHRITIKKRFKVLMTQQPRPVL
T1 sequence (Q9NX24 whole entry partner): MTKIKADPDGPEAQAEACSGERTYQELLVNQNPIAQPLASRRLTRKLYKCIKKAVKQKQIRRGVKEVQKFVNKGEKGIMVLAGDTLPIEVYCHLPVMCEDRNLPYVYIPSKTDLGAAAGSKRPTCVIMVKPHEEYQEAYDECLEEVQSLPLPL
T1 sequence (Q9NY12 whole entry partner): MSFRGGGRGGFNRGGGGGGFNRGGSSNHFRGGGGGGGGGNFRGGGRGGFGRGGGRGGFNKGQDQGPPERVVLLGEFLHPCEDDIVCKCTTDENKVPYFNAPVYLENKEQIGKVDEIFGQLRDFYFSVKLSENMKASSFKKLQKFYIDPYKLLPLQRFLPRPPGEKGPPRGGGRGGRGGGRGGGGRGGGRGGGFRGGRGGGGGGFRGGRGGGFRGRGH
T2 sequence (O14746 whole entry): as the sequence (O14746 whole entry) above
T2 sequence (O60832 whole entry partner): as the sequence (O60832 whole entry partner) above
T2 sequence (Q9NPE3 whole entry partner): as the sequence (Q9NPE3 whole entry partner) above
T2 sequence (Q9NX24 whole entry partner): as the sequence (Q9NX24 whole entry partner) above
T2 sequence (Q9NY12 whole entry partner): as the sequence (Q9NY12 whole entry partner) above

The term IC50 denotes the concentration that gives 50% inhibition. `Cc1ccc(Sc2ccc([N+](=O)[O-])cc2C=C2SC(=O)NC2=O)cc1` [Compound 1] registered a half-maximal inhibitory concentration (IC50) in assay [1] of 21 µM. Also, the “Residual Enzyme Activity (%)” value in assay [2] (concentration 30 μM) is recorded as 11%.

In the case of `CC(=O)Nc1ccc(Sc2ccc(C)cc2)c(C=C2SC(=O)NC2=O)c1` [Compound 3], the “Residual Enzyme Activity (%)” value in assay [2] (concentration 100 μM) amounted to 0%.

`Cc1ccc([S+]([O-])c2ccc([N+](=O)[O-])cc2C=C2SC(=O)NC2=O)cc1` (stereo not drawn) [Compound 4]: it took 30 µM to reach half-maximal inhibition in assay [1] (IC50). In assay [2] (concentration 10 μM), the “Residual Enzyme Activity (%)” value worked out at 16%.

On to `Cc1ccc(S(=O)(=O)c2ccc([N+](=O)[O-])cc2C=C2SC(=O)NC2=O)cc1` [Compound 5], for which, in assay [1], it took 23 µM to reach half-maximal inhibition (IC50). The “Residual Enzyme Activity (%)” value in assay [2] (concentration 10 μM) came to 16%.

Take `O=C1NC(=O)C(=Cc2cccc(Oc3ccccc3)c2)S1` [Compound 11]: the “Residual Enzyme Activity (%)” value in assay [2] (concentration 100 μM) is recorded as 50%.

On to `Cc1ccc(Oc2cccc(C=C3SC(=O)NC3=O)c2)cc1` [Compound 12], for which the IC50 in assay [1] was 5.8 µM. In assay [2] (concentration 100 μM), the “Residual Enzyme Activity (%)” value is recorded as 26%.

The molecule `O=C1NC(=O)C(=Cc2ccc(Oc3ccccc3)cc2)S1` [Compound 14] displayed an IC50 in assay [1] of 4 µM. Besides, the “Residual Enzyme Activity (%)” value in assay [2] (concentration 100 μM) is on record as 47%.

Turning to `O=C1NC(=O)C(=Cc2cc([N+](=O)[O-])ccc2OCc2ccccc2)S1` [Compound 16], in assay [1], the concentration for half-maximal inhibition (IC50) is 26 µM. For the same molecule, the “Residual Enzyme Activity (%)” value in assay [2] (concentration 100 μM) turned out to be 0%.

With `Cc1ccc(COc2ccc([N+](=O)[O-])c(C=C3SC(=O)NC3=O)c2)cc1` [Compound 21], the IC50 in assay [1] came to 4.3 µM. The “Residual Enzyme Activity (%)” value in assay [2] (concentration 30 μM) was 35%.

Take `Cc1ccc(COc2ccccc2C=C2SC(=O)NC2=O)cc1` [Compound 22]: the “Residual Enzyme Activity (%)” value in assay [2] (concentration 100 μM) was 33%.

Molecule `O=C1NC(=S)SC1=Cc1cc([N+](=O)[O-])ccc1Sc1ccc(Cl)cc1` [Compound 37] registered a 50% inhibitory concentration (IC50) in assay [1] of 6 µM. For the same molecule, the “Residual Enzyme Activity (%)” value in assay [2] (concentration 30 μM) worked out at 39%.

Take `Cc1ccc(Sc2ccc([N+](=O)[O-])cc2C=C2SC(=S)NC2=O)cc1` [Compound 38]: the “Residual Enzyme Activity (%)” value in assay [2] (concentration 30 μM) came to 36%.

With `CCN(CC)C(=O)c1cc(C=C2SC(=O)NC2=O)c(Sc2ccc(Cl)cc2)s1` [Compound 54], the IC50 in assay [1] was determined as 7.4 µM. Also, the remaining activity at 30 µM in assay [2] (setting [3]) is 50%.

For the molecule `CN1CCN(C(=O)c2cc(C=C3SC(=O)NC3=O)c(Sc3ccc(Cl)cc3)s2)CC1` [Compound 56], the half-maximal inhibitory concentration (IC50) in assay [1] was determined as 7.9 µM. Besides, in assay [2] (setting [3]), the remaining activity at 30 µM was found to be 26%.

In assay [1], `O=C1NC(=O)C(=Cc2cc(C(=O)N3CCOCC3)sc2Sc2ccc(Cl)cc2)S1` [Compound 57] returned an IC50 of 54 µM. In addition, the remaining activity at 30 µM in assay [2] (setting [3]) was 24%.

As for `O=C1NC(=O)C(=Cc2cc(C(=O)c3ccc(Cl)cc3)c(S(=O)(=O)c3ccc(Cl)cc3)s2)S1` [Compound 66], it took 3.7 µM to reach half-maximal inhibition in assay [1] (IC50). In addition, the “Residual Enzyme Activity (%)” value in assay [2] (concentration 30 μM) is reported as 0%.

In assay [1], `O=C1NC(=O)/C(=C/c2cc([N+](=O)[O-])ccc2[S+]([O-])c2ccc(Cl)cc2)S1` (stereo not drawn) [Compound 68] yielded a half-inhibitory concentration (IC50) of 2.7 µM. Besides, in assay [2] (setting [4]), the remaining activity at 10 µM came to 18%.

Turning to `O=C1NC(=O)C(=Cc2cc([N+](=O)[O-])ccc2S(=O)(=O)c2ccc(Cl)cc2)S1` [Compound 69], the midpoint of inhibition in assay [1], the IC50, lay at 0.48 µM. The remaining activity at 10 µM in assay [2] (setting [4]) is 16%.

`O=C1NC(=O)C(=Cc2cc([N+](=O)[O-])ccc2S(=O)(=O)Cc2ccccc2)S1` [Compound 78] displayed an IC50 in assay [1] of 5.5 µM. Besides, in assay [2] (setting [4]), the remaining activity at 10 µM is 25%.

Regarding `Cc1ccc([S+]([O-])c2ccc(C=C3SC(=O)NC3=O)cc2[N+](=O)[O-])cc1` (stereo not drawn) [Compound 82], the “residual activity of in vitro telomerase activity (in parenthesis)” value (shortened to “residual activity”) in assay [1] is recorded as “(51%)”. Also, in assay [2] (concentration 3 μM), the “Residual Enzyme Activity (%)” value is given as 23%.

As to `Cc1ccc(S(=O)(=O)c2ccc(C=C3SC(=O)NC3=O)cc2[N+](=O)[O-])cc1` [Compound 83], the “residual activity” value in assay [1] is listed as “(58%)”. Moreover, the “Residual Enzyme Activity (%)” value in assay [2] (concentration 10 μM) is given as 32%.

In assay [1], `O=C1NC(=O)C(=Cc2cc([N+](=O)[O-])ccc2S(=O)(=O)C2CCCCC2)S1` [Compound 86] returned a 50% inhibitory concentration (IC50) of 8 µM. Moreover, the remaining activity at 10 µM in assay [2] (setting [4]) amounted to 44%.

As to `Cc1ccc(Sc2ccc(-c3ccccn3)cc2C=C2SC(=O)NC2=O)cc1` [Compound 89], the “residual activity” value in assay [1] is on record as “(56%)”. Moreover, the “Residual Enzyme Activity (%)” value in assay [2] (concentration 30 μM) was determined as 2%.

For `Cc1ccc(Sc2ccc(-c3cccs3)cc2C=C2SC(=O)NC2=O)cc1` [Compound 92], in assay [1], the IC50 was 5.6 µM. The remaining activity at 30 µM in assay [2] (setting [3]) was 41%.

Consider `CC(=O)c1ccc(Sc2ccc(C)cc2)c(C=C2SC(=O)NC2=O)c1` [Compound 97], for which the midpoint of inhibition in assay [1], the IC50, lay at 5.6 µM. Also, the remaining activity at 30 µM in assay [2] (setting [3]) was 41%.

Regarding `Cc1ccc([S+]([O-])c2ccc(C(F)(F)F)cc2C=C2SC(=O)NC2=O)cc1` (stereo not drawn) [Compound 113], the “residual activity” value in assay [1] is on record as “(68%)”. Besides, the “Residual Enzyme Activity (%)” value in assay [2] (concentration 30 μM) amounted to 37%.

For the molecule `O=C1NC(=O)C(=Cc2cc([N+](=O)[O-])ccc2[S+]([O-])c2ccncc2)S1` (stereo not drawn) [Compound 120], in assay [1], it took 9.3 µM to reach half-maximal inhibition (IC50). Besides, the “Residual Enzyme Activity (%)” value in assay [2] (concentration 10 μM) was determined as 40%.

For the molecule `CCc1ccc([S+]([O-])c2ccc([N+](=O)[O-])cc2/C=C2\SC(=O)NC2=O)cc1` (stereo not drawn) [Compound 133], the midpoint of inhibition in assay [1], the IC50, lay at 9.1 µM. The remaining activity at 10 µM in assay [2] (setting [4]) was 11%.

For the molecule `O=C1NC(=O)C(=Cc2cc([N+](=O)[O-])ccc2[S+]([O-])c2cccc(Cl)c2)S1` (stereo not drawn) [Compound 134], the “residual activity” value in assay [1] is reported as “(59%)”. Moreover, the “Residual Enzyme Activity (%)” value in assay [2] (concentration 10 μM) stood at 4%.

Consider `O=C1NC(=O)/C(=C/c2cc([N+](=O)[O-])ccc2[S+]([O-])c2ccc(Cl)c(Cl)c2)S1` (stereo not drawn) [Compound 135], for which 4.5 µM corresponded to half-maximal inhibition in assay [1] (IC50). Further, the remaining activity at 3 µM in assay [2] (concentration 3 μM, read-out: Residual Enzyme Activity (%)) was 14%.

As to `Cc1ccc([S+]([O-])c2ccc(C=C3SC(=O)NC3=O)cc2Cl)cc1` (stereo not drawn) [Compound 141], the “residual activity” value in assay [1] is “(64%)”. Also, in assay [2] (concentration 30 μM), the “Residual Enzyme Activity (%)” value is 26%.

On to `Cc1ccc([S+]([O-])c2ccc(C=C3SC(=O)NC3=O)cc2Br)cc1` (stereo not drawn) [Compound 143], for which the “residual activity” value in assay [1] is on record as “(62%)”. The “Residual Enzyme Activity (%)” value in assay [2] (concentration 30 μM) was found to be 36%.
